Data: patent US12042492B2 (priority 2020, dated 2024)
Marks after values point to notes of the source that are not given here.

Legend:
[1] = system: mAPP transfected N2a cells; test: Cell viability / apoptotic cell death in mAPP transfected N2a cells; format: cell-based, mouse
Protocol: (§1) The N2a cells grown for 6 days in a serum-free medium (1:1 mixture of DMEM and OptiMEM, plus penicillin and streptomycin (Invitrogen, Carlsbad, CA, USA) until the cells developed neuronal processes. As shown in (FIG. 10), these cells were used for 4 groups—one control group and 3 treatment groups. 1) untreated N2a cells (the control group), 2) N2a cells treated with ligand 1 (N2a+ligand 1), 3) N2a cells transfected mAPP with the (lipofectamine) (20 μM final concentration for 6 hrs (mAPP), 4) N2a cells transfected with mAPP cDNA for 6 hrs, treated with ligand 1 (mAPP+ligand 1 treatment group), N2a cells treated with ligand 1 for 24 hrs and then treated with the mAPP cDNA for 6 hrs (ligand 1+mAPP treatment group). As shown in (FIG. 10), the inventors performed 4 independent cell cultures and treatments for all experiments (n=4).
Cell viability and apoptotic cell death MTT assay. Ligand 1 treated N2a cells, cell based apoptosis assay was performed using Cellometer Vision CBA Image Cytometry System (Nexcelom Bioscience LLC, Lawrence, MA) with two fluorophore Annexin V-FITC and Propidium Iodide (PI) staining solution, according to manufacturer's instructions. Briefly, cells were harvested using trypsin, then spin down at 300 g for three minutes and pellets were washed with 1×PBS, cells were counted using hematocytometer. […]

mAPP N2a cells = test: qRT-PCR mRNA expression in mAPP N2a cells treated with ligand 1; format: cell-based, mouse
Protocol: as §1
mRNA levels of mitochondrial dynamics and mitochondrial biogenesis and synaptic genes. Using the reagent TriZol (Invitrogen), the inventors isolated total RNA from 4 independent treatments of N2a cells (n=4) from control (untreated N2a cells) and experimental treatments (N2a cells treated with Ligand 1; N2a cells transfected with mAPP; N2a cells transfected with mAPP and then treated with Ligand 1. Using primer express Software (Applied Biosystems), the inventors designed the oligonucleotide primers for the housekeeping genes β-actin, GDPH; APP-related genes (APP, BACE1 and PSN1); mitochondrial structural genes; fission (Drp1 and Fis1); fusion genes (MFN1, MFN2, Opa1) (54), mitochondrial biogenesis genes (PGC1α, Nrf1, Nrf2, and Tfam) (Manczak et al., 2019), and synaptic proteins (SYN, PSD95 and MAP2). The primer sequences and amplicon sizes are listed in (Table 1). With SYBR-Green chemistry-based quantitative real-time RT-PCR, the inventors measured mRNA expression of the genes mentioned above as described by Manczak et al. 2019(54). Briefly, 2 μg of DNAse-treated total RNA was used as starting material, to which the inventors added 1 μl of oligo (dT), 1 μl of 10 mM dNTPs, 4 μl of 5× first strand buffer, 2 μl of 0.1 M DTT, and 1 μl RNAse outout. The reagents RNA, dT), and dNTPs were mixed first, then heated at 65° C. for 5 min, and finally chilled on ice until the remaining components were added. The samples were incubated at 42° C. for 2 min, and then 1 μl of Superscript II (40 U/μl) was added. The samples were then incubated at 42° C. for 50 min, at which time the reaction was inactivated by heating at 70° C. for 15 min.
Quantitative real-time PCR amplification reactions were performed in N2a cells in an ABI Prism 7900 sequence detection system (Applied Biosystems, Foster City, CA) in a 25-μl volume of total reaction mixture. The reaction mixture consisted of 1×PCR buffer containing SYBR-Green; 3 mM MgCl2; 100 nm of each primer; 200 nm of dATP, dGTP, and dCTP each; 400 nm of dUTP; 0.01 U/μl of AmpErase UNG; and 0.05 U/μl of AmpliTaq Gold. A 20 ng cDNA template was added to each reaction mixture.
The CT-values of β-actin was tested to determine the unregulated endogenous reference gene in N2a cells that were treated with Aβ and protective molecules, and in untreated N2a cells. In the latter case, the CT-value was similar in untreated and N2a cells treated with MTAs and Aβ. The CT-value is an important quantitative parameter in real-time PCR analysis as described in Gutala and Reddy (2004) (55). All RT-PCR reactions were carried out in triplicate, with no template control. The PCR conditions were: 50° C. for 2 min and 95° C. for 10 min, followed by 40 cycles of 95° C. for 15 sec and 60° C. for 1 min. The fluorescent spectra were recorded during the elongation phase of each PCR cycle. To distinguish specific amplicons from non-specific amplifications, a dissociation curve was generated. […]

[2] = N2a + mAPP + ligand1 relative to mAPP N2a cells
[3] = N2a + mAPP + ligand1 relative to mAPP N2a cells, listed as ligand 1
[4] = N2a + mAPP + ligand1 relative to mAPP N2a cells, listed as ligand1
[5] = N2a + mAPP + ligand1 relative to mAPP N2a cells, negative = decrease
[6] = N2a + mAPP + ligand1 relative to untreated N2a cells
[7] = ligand 1 treated mAPP cells relative to mAPP cells, size of the decrease, P<0.05

## [(6As,8S,10aS,12aS)-10a, 12a-dimethyl-2-oxo-3,4,4a,4b,5,6,6a,7,8,9,10,10b,11,12-tetradecahydro-1H-naphtho[2,1-f]quinolin-8-yl] 4-[4-[bis(2-chloroethyl)amino]phenyl]butanoate [Ligand 1]
[1]; mAPP transfected cells
  Apoptotic cell death: reduced
[1]; mAPP+ligand 1 compared to mAPP cells, P=0.181
  Cell viability: not significantly increased
mAPP N2a cells; [2]
  mRNA fold change Mfn1: 1.3 fold
  mRNA fold change OPA1: 1.2 fold
mAPP N2a cells; [3]
  mRNA fold change Mfn2: 1.5 fold
  mRNA fold change Nrf1: 2.1 fold
  mRNA fold change Nrf2: 2.1 fold
  mRNA fold change PGC1a: 2.0 fold
  mRNA fold change PSD95: 1.3 fold
  mRNA fold change Synaptophysin: 1.9 fold
  mRNA fold change TFAM: 1.8 fold
mAPP N2a cells; [4]
  mRNA fold change Mfn2: 1.5* fold
  mRNA fold change Nrf1: 2.1** fold
  mRNA fold change Nrf2: 2.1** fold
  mRNA fold change PGC1a: 2.0** fold
  mRNA fold change PSD95: 1.8* fold
  mRNA fold change Synaptophysin: 1.9* fold
  mRNA fold change TFAM: 1.8* fold
mAPP N2a cells; [5]
  mRNA fold change APP: −1.5* fold
  mRNA fold change BACE1: −1.4* fold
  mRNA fold change Drp1: −2.3** fold
  mRNA fold change Fis1: −1.5* fold
  mRNA fold change Presenilin1: −1.5* fold
mAPP N2a cells; [6]
  mRNA fold change APP: 1.3 fold
  mRNA fold change BACE1: 1.1 fold
  mRNA fold change Drp1: 1.1 fold
  mRNA fold change Fis1: 1.0 fold
  mRNA fold change Mfn1: −1.2 fold
  mRNA fold change Mfn2: 1.1 fold
  mRNA fold change Nrf1: 1.2 fold
  mRNA fold change Nrf2: 1.4 fold
  mRNA fold change OPA1: 1.1 fold
  mRNA fold change PGC1a: 1.2 fold
  mRNA fold change PSD95: 1.3 fold
  mRNA fold change Presenilin1: −1.2 fold
  mRNA fold change Synaptophysin: 1.3 fold
  mRNA fold change TFAM: 1.5 fold
mAPP N2a cells; [7]
  APP mRNA, fold decreased: 1.5 fold
  BACE1 mRNA, fold decreased: 1.4
  PSN1 mRNA, fold decreased: 1.5
mAPP N2a cells; mAPP+ligand 1 treated cells relative to mAPP cells, size of the decrease, P<0.005
  Drp1 mRNA, fold reduced: 2.3 fold
mAPP N2a cells; mAPP+ligand 1 treated cells relative to mAPP cells, size of the decrease, P<0.05
  Fis1 mRNA, fold reduced: 1.5 fold
